Assay results taken from patent US20250188088A1, “COMPOUND AND USE THEREOF” (ONQUALITY PHARMACEUTICALS CHINA LTD., priority 2022, published 2025).
Values after ≈ are worked out from the molar mass of the structure shown. Where two headings read alike, the source gives them in different places. Values belong to the molecule of their own block, whether it stands above or below them.

Columns and labels:
[1] = system: rash caused by monoclonal EGFR inhibitors; experiment: Prevention of rash caused by monoclonal EGFR inhibitors, topical ointment, rat model; assay type: in vivo, SD rats
Experimental: An Experiment to Verify the Prevention of Rash Caused by Monoclonal EGFR Inhibitors with Topical Administration of Compounds of the Present Application on a Rat Animal Model After the SD rats were fed and adapted for one week (about 200 g), the rats were divided into 10 rats per group. The hair on the back of rats was gently removed with an electric razor one day before the experiment, and then an administration test was carried out. The experiments were divided into the administration group with the compound of the present application and the control group. The EGFR monoclonal antibody solution diluted with normal saline was injected via the tail vein twice a week, and the injection rate and time are shown in Table 2. After injection, the administration group applied the compound ointment of the present application on the backs (about 3 cm*3 cm) of rats every day, and the control group applied blank matrix ointment (about 0.5 g) to the backs (about 3 cm*3 cm) of rats every day. After drug application, the rats were fixed with a fixed cyclinder for 4 h; after that, the rats were released and the residual drug at the application site was wiped off with clear water. Monoclonal antibody EGFR inhibitors were injected via the tail vein twice a week, and the compound of the present application and blank ointment were applied once a day until obvious rashes appeared in the control group. […] Table 2 lists the animal experiment combinations of various monoclonal antibody EGFR inhibitors and the compound ointment of the present application, as well as the corresponding experiment results (wherein, the value in the control rate column=the number of rats whose rash is milder in the administration group than that in the control group/the total number of rats in the administration group×100%).

[2] = Plasma stability, mini pig plasma; assay type: in vitro ADME, Mini Pigs; details: 37° C.
Experimental: (§1) In addition, the plasma stability of these compounds was determined. Briefly, the determination method comprises the following steps: • 1) Thaw the frozen mixed plasma in a 37° C. water bath before testing, and then centrifuge at 4000 rpm for 5 min to remove blood clots; • 2) Add 98 μL blank plasma into each well of the 96-well reaction plate; • 3) In addition to the blank samples, add 2 μL of 100 μM working solution of test compound into each well; • 3) Incubate the reaction plate at 37° C. and start timing. Incubation times were 0, 10, 30, 60 and 120 minutes, respectively, with two replicate wells at each time point; • 4) Terminate the incubation at the corresponding time point, and add 400 μL of acetonitrile solution containing 200 ng/mL tolbutamide and 200 ng/mL labetalol to precipitate proteins; • 5) Shake each plate for 20 minutes, then centrifuge at 4000 rpm for 20 minutes, transfer 50 μL of supernatant to another 96-well plate, and dilute each sample with 100 μL of pure water; • 6) Analyze the sample by LC-MS/MS.

[3] = system: skin contact delayed-type hypersensitivity; experiment: Skin contact delayed-type hypersensitivity (DNFB) response test, ear swelling, topical ointment; assay type: in vivo; details: topical to ears, DNFB DTH, Balb/c mice, compared to blank ointment
Text: Therapeutic Effect of Topical Administration of Compounds of the Present Application in Skin Contact Delayed-Type Hypersensitivity Response Test in Mice Delayed-type hypersensitivity (DTH) response in mouse skin is considered to be an effective model for clinical contact dermatitis and other T cell-mediated cutaneous immune diseases, such as atopic dermatitis and psoriasis. The DTH in mice shares the common features with these cutaneous immune diseases, including immunoinfiltration with an increase of inflammatory cytokines and hyperproliferation of keratinocytes. Balb/c mice were sensitized by topical administration of the antigen 2,4-dinitrofluorobenzene (DNFB) to the shaved back of mice on Days 0 and 1. On Day 5, the thickness of the ears was measured using an engineering micrometer. The measurement result was recorded and used as a baseline. The animals were then challenged with a total of 20 μL of DNFB (10 μL for the internal pinna and 10 μL for the external pinna) topically dosed to both ears at a concentration of 0.2%. The ears were measured again 24-72 hours after challenge. The compound ointment of the present application was applied topically to the ears of the animals throughout the allergic and challenge periods (Days −1˜7) or before or throughout the challenge period (generally Days 4˜7). The therapeutic effect was expressed by a reduction in ear swelling compared to that of the blank ointment. The compound causing a reduction of 20% or more was considered effective. Table 5 lists the skin contact delayed-type hypersensitivity experiment results in mice treated with the compound of the present application.

[4] = Plasma stability, human plasma; assay type: in vitro ADME, Humans; details: 37° C.
Experimental: as §1
The experiment results are as follows, and it can be seen from the test results that the selected compounds are easily metabolized to the target compound in human plasma.

[5] = system: rash caused by small molecule EGFR inhibitors; experiment: Prevention of rash caused by small molecule EGFR inhibitors, topical ointment, rat model; assay type: in vivo, SD rats
Text: An Experiment to Verify the Prevention of Rash Caused by Small Molecule EGFR Inhibitors with Topical Administration of Compounds of the Present Application on a Rat Animal Model A rat animal model was established. After daily gavage of a small molecule EGFR inhibitor to female SD rats for […], the rats developed extensive rashes on their backs several days later (picture shown in FIG. 1). […] Similar to humans, rats developed skin rashes on their faces and bodies after oral administration of small molecule EGFR inhibitors. Both of them had the same etiology and very similar symptoms. Therefore, rats are a proper animal model for mimicking EGFR inhibitor-induced rash. After the SD rats were fed and adapted for one week (about 200 g), the rats were divided into 10 rats per group. The hair on the back of rats was gently removed with an electric razor one day before the experiment, and then an intragastric administration test was carried out. EGFR inhibitors were dissolved in a sterile aqueous solution, and diluted with PBS buffer; the amount of each gavage was not more than 2 mL, and the dosage was shown in Table 1. The experiment comprised the administration group and the control group. After intragastric administration, apply the ointment (type and concentration are shown in Table 1) of the compound used in the present application to the backs (about 3 cm*3 cm) of rats in the administration group; apply blank matrix ointment (about 0.5 g) to the backs (about 3 cm*3 cm) of rats in the control group; fix the rats with a fixed cylinder for about 4 hours after drug application, release the rats after 4 hours, wipe off the residual drug at the application site with clean water, and put them back into the cage. The frequency of intragastric administration of EGFR inhibitors is shown in Table 1, but the compounds of the present application and blank matrix ointment are applied only once a day. The intragastric administration and application test were repeated daily until an obvious rash appeared in the control group. […] Table 1 lists the animal experiment combination of various small molecule EGFR inhibitors and the compound ointment of the present application, as well as the corresponding experiment results (wherein, the value in the control rate column=the number of rats whose rash is milder in the administration group than that in the control group/the total number of rats in the administration group×100%).

[6] = Thermodynamic solubility assay (PBS pH 6.5; isopropyl myristate); assay type: physicochemical; details: thermodynamic from solid
Experimental: Thermodynamic Solubility Assay
Weigh not less than 2 mg of the sample powder into a Whatman Mini-UniPrep vial. If it is required to test the thermodynamic solubility of samples in multiple buffers, a separate vial is needed for each test; add 450 μL of buffer to each Whatman Mini-UniPrep vial, respectively; after that, install the piston cap of Whatman Mini-UniPrep and press it above the liquid level, so that the filter is in contact with the buffer during shaking; shake the solubility sample by vortexing for 1 minute.
Inject 3 UV standard solutions from low to high concentrations into the HPLC, then inject the diluent and supernatant of the test compound, with two replicates of test sample; and integrate the UV peaks. Simulate a standard curve and calculate the thermodynamic solubility of the sample.

[7] = Log D measurement (n-octanol/PBS shake, LC-MS/MS); assay type: physicochemical; details: pH 7.4, read-out: LogD7.4 (Oct/buff)
Experimental: Two replicates of test compounds (DMSO stock solution 10 mM, 2 μL/well) and QCs (DMSO 10 mM, 2 μL/well) were transferred from the storage tube to a 96-well cluster tube. Add buffer-saturated n-octanol ([…]) and n-octanol-saturated PBS (149 μL/well) to each well; vortex mix the cluster tube for 1 minute, mix by shaking on a plate shaker at 880 rpm for one hour, and then centrifuge at 4000 rpm for 10 minutes. Remove the cover pad, accurately measure a certain amount of n-octanol layer samples (4 μL/well) into a 96-well plate containing n-octanol internal standard diluent (796 μL/well); accurately measure a certain amount of buffer salt layer samples (30 μL/well) into a 96-well plate containing buffer internal standard diluent (570 μL/well); the dilution factor of the sample can be adjusted according to different properties of the sample. Samples were analyzed using a triple quadrupole mass spectrometer. The processed sample solution was analyzed by the fast isocratic elution and small column retention method, the concentration correction was carried out by dilution factor and internal standard, and the ratio of the corrected peak area was used to calculate the final result (Log D/Log P value).

[8] = aqueous buffer, PBS buffer pH 6.5, about 25° C., read-out: Thermodynamic Solubility pH = 6.5
[9] = oil or lipid, isopropyl myristate as vehicle, about 25° C., read-out: Thermodynamic Solubility in Isopropyl Myristate

Compound: CCC(CC)C(=O)OCCN(C)C(=O)n1ccc2c(N(C)[C@H]3CN(C(=O)CC#N)CC[C@H]3C)ncnc21 [Compound A10]
solubility thermodynamic at 24 h [6, 8]: 233 µg/mL (≈ 456 µM) | solubility thermodynamic at 24 h [6, 9]: 1830 µg/mL (≈ 3580 µM) | logD [7]: 2.07

Compound: CCCCCC(=O)OCCN(C)C(=O)n1ccc2c(N(C)[C@H]3CN(C(=O)CC#N)CC[C@H]3C)ncnc21 [Compound A9]
solubility thermodynamic at 24 h [6, 8]: 234 µg/mL (≈ 457 µM) | solubility thermodynamic at 24 h [6, 9]: 1380 µg/mL (≈ 2690 µM) | logD [7]: 1.69

Compound: CCC(C)C(=O)OCCN(C)C(=O)n1ccc2c(N(C)[C@H]3CN(C(=O)CC#N)CC[C@H]3C)ncnc21 (some centres unmarked) [Compound A11]
solubility thermodynamic at 24 h [6, 8]: 170 µg/mL (≈ 341 µM) | solubility thermodynamic at 24 h [6, 9]: 1590 µg/mL (≈ 3200 µM) | logD [7]: 1.87

Second part, led by results:

half-life at 2 µM [2]: 2.8 min | % Retained ([2]; 0 min): 100.0% | % Retained ([2]; 10 min): 8.3% | % Retained ([2]; 30 min): 0.1% | % Retained ([2]; 60 min): 0.0% | % Retained ([2]; 120 min): 0.0% | half-life at 2 µM [4]: 2.2 min | % Retained ([4]; 0 min): 100.0% | % Retained ([4]; 10 min): 4.5% | % Retained ([4]; 30 min): 0.0% | % Retained ([4]; 60 min): 0.0% | % Retained ([4]; 120 min): 0.0%
Compound: C[C@@H]1CCN(C(=O)CC#N)C[C@@H]1N(C)c1ncnc2c1ccn2C(=O)N(C)CCOC(=O)C1CCCCC1 [Compound A16]
Control Rate ([1]; Cetuximab 100 mg/kg twice a week via tail vein, ointment 0.3 wt% once a day, 10 days): 10% | Control Rate ([1]; Cetuximab 100 mg/kg twice a week via tail vein, ointment 3.0 wt% once a day, 10 days): 50% | Control Rate ([1]; Cetuximab 100 mg/kg twice a week via tail vein, ointment 10.0 wt% once a day, 10 days): 70% | Control Rate ([1]; Panitumumab 10 mg/kg twice a week via tail vein, ointment 1.0 wt% once a day, 14 days): 50% | Control Rate ([1]; Panitumumab 10 mg/kg twice a week via tail vein, ointment 5.0 wt% once a day, 14 days): 80% | Control Rate ([1]; Panitumumab 10 mg/kg twice a week via tail vein, ointment 10.0 wt% once a day, 14 days): 60% | Reduction Rate of Ear Swelling ([3]; ointment 0.1 wt%): 25% | Reduction Rate of Ear Swelling ([3]; ointment 1.0 wt%): 35% | Reduction Rate of Ear Swelling ([3]; ointment 5.0 wt%): 39% | Reduction Rate of Ear Swelling ([3]; ointment 10.0 wt%): 42% | Control Rate ([5]; Afatinib 40 mg/kg once a day, ointment 1.0 wt% once a day, 14 days): 60% | Control Rate ([5]; Afatinib 40 mg/kg once a day, ointment 5.0 wt% once a day, 14 days): 80% | Control Rate ([5]; Afatinib 40 mg/kg once a day, ointment 10.0 wt% once a day, 14 days): 100% | Control Rate ([5]; BPI-7711 60 mg/kg once a day, ointment 1.0 wt% once a day, 12 days): 50% | Control Rate ([5]; Erlotinib 70 mg/kg once a day, ointment 0.3 wt% once a day, 14 days): 30% | Control Rate ([5]; Erlotinib 70 mg/kg once a day, ointment 3.0 wt% once a day, 14 days): 50% | Control Rate ([5]; Zorifertinib 60 mg/kg once a day, ointment 1.0 wt% once a day, 14 days): 30%

solubility thermodynamic at 24 h [6, 8]: 304 µg/mL (≈ 597 µM) | solubility thermodynamic at 24 h [6, 9]: 2340 µg/mL (≈ 4580 µM) | logD [7]: 2.1
Compound: C[C@@H]1CCN(C(=O)CC#N)C[C@@H]1N(C)c1ncnc2c1ccn2C(=O)N(C)CCOC(=O)C1(C)CCC1 [Compound A3]
